As a reminder, the IC50 is the point on the concentration scale where inhibition reaches its midpoint.

The structures appear in SMILES notation.

The subject of experiment [1] is BH4 production in human peripheral blood mononuclear cells (PBMCs). The experiment is described as follows: hPBMC assay, inhibition of BH4 production by LC-MS (anti-CD3/anti-CD28 stimulated). The format is cell-based. Particulars: PBMC, read-out: hPBMC IC50.
Experiment [2] deals with SNAP-hSPR (sepiapterin reductase, SPR) (Homo sapiens, UniProt P35270). Kind of experiment: biochemical. The format is binding. Particulars: terbium labelled SNAP-hSPR / SSZ labelled SNAP-EGFP; read-out: hTR-FRET IC50.
Chain of SNAP-hSPR (sepiapterin reductase, SPR) (P35270 whole entry): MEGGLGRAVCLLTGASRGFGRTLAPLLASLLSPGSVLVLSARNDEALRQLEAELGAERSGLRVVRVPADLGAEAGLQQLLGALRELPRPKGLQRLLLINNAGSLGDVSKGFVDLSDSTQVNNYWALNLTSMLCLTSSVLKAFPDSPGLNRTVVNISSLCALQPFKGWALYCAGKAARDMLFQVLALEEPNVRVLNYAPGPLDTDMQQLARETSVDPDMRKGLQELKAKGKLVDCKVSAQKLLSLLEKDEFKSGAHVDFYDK

For the molecule `Cc1c(C(=O)N2CC(c3cccc(F)n3)C2)cnn1-c1nn2cccc2c(=O)[nH]1` [Q-1121], the IC50 in experiment [1] was 70 nM; in experiment [2], 1 nM.

Regarding `Cc1c(C(=O)N2C3CCC2CC(C(F)(F)F)C3)cnn1-c1nn2cccc2c(=O)[nH]1` (stereo not drawn) [Q-1122], the IC50 turned out to be 25 nM in experiment [1] and 1 nM in experiment [2].

With `Cc1c(C(=O)N2CC3CCCC(C2)C3C(F)(F)F)cnn1-c1nn2cccc2c(=O)[nH]1` (stereo not drawn) [Q-1123], the IC50 in experiment [1] worked out at 57 nM; in experiment [2], 1 nM.

As to `Cc1c(C(=O)N2CCCC(C(F)(F)F)CC2)cnn1-c1nn2cccc2c(=O)[nH]1` (stereo not drawn) [Q-1124], the IC50 in experiment [1] was found to be 35 nM; in experiment [2], 1 nM.

On to `Cc1nn(-c2nn3cccc3c(=O)[nH]2)cc1C(=O)N1CCN(CC(F)(F)F)CC1` [Q-1125], for which the IC50 in experiment [1] was 100 nM; in experiment [2] it was 6 nM.

With `C=C1C2CCCC1CN(C(=O)c1cnn(-c3nn4cccc4c(=O)[nH]3)c1C)C2` [Q-1126], the IC50 is 48 nM in experiment [1] and 1 nM in experiment [2].

Take `Cc1c(C(=O)N2CC(c3ccc(F)cn3)C2)cnn1-c1nn2cccc2c(=O)[nH]1` [Q-1128]: the figures for the IC50 in experiment [1] and in experiment [2] were 48 nM and 2 nM, respectively.

For the molecule `Cc1c(C(=O)N2CC(c3cncc(F)c3)C2)cnn1-c1nn2cccc2c(=O)[nH]1` [Q-1129], the figures for the IC50 in experiment [1] and in experiment [2] were 50 nM and 2 nM, respectively.

Consider `Cc1c(C(=O)N2CC3CCC(C2)C3C(F)(F)F)cnn1-c1nn2cccc2c(=O)[nH]1` (stereo not drawn) [Q-1130], for which the IC50 in experiment [1] amounted to 57 nM; in experiment [2], 1 nM.

On to `Cc1c(C(=O)N2CCC(C(C(F)F)C(F)(F)F)CC2)cnn1-c1nn2cccc2c(=O)[nH]1` (stereo not drawn) [Q-1131], for which the IC50 in experiment [1] turned out to be 27 nM; in experiment [2], 1 nM.

Take `CCC1(C(F)(F)F)CCN(C(=O)c2cnn(-c3nn4cccc4c(=O)[nH]3)c2C)CC1` [Q-1132]: the IC50 in experiment [1] came to 40 nM; in experiment [2], 1 nM.

For `Cc1c(C(=O)N2CCN(c3nc(C(F)(F)F)cs3)CC2)cnn1-c1nn2cccc2c(=O)[nH]1` [Q-1134], the IC50 in experiment [1] amounted to 25 nM; in experiment [2], 3 nM.

Regarding `Cc1c(C(=O)N2CCN(c3ncc(-c4ccc(Cl)cc4)o3)CC2)cnn1-c1nn2cccc2c(=O)[nH]1` [Q-1135], the IC50 was determined as 45 nM in experiment [1] and 10 nM in experiment [2].

`Cc1c(C(=O)N2CCC(c3nc(-c4ccncc4)cs3)CC2)cnn1-c1nc2c(c(=O)[nH]1)CCC2` [Q-1136]: the IC50 was found to be 14 nM in experiment [1] and 2 nM in experiment [2].

Turning to `Cc1c(C(=O)N2CCN(c3nc(C(F)(F)F)co3)CC2)cnn1-c1nn2cccc2c(=O)[nH]1` [Q-1137], the IC50 is 160 nM in experiment [1] and 3 nM in experiment [2].

For `Cc1c(C(=O)N2CCN(c3nc(-c4ccc(Cl)cc4)cs3)CC2)cnn1-c1nn2cccc2c(=O)[nH]1` [Q-1138], the IC50 is 360 nM in experiment [1] and 20 nM in experiment [2].

For the molecule `Cc1c(C(=O)N2CCN(c3nc(-c4ccc(C(F)(F)F)cc4)cs3)CC2)cnn1-c1nn2cccc2c(=O)[nH]1` [Q-1139], the IC50 in experiment [1] stood at 420 nM; in experiment [2], 20 nM.

Take `Cc1c(C(=O)N2CCN(c3nnc(-c4ccc(Cl)cc4)o3)CC2)cnn1-c1nn2cccc2c(=O)[nH]1` [Q-1140]: the values for the IC50 in experiment [1] and in experiment [2] were 230 nM and 8 nM, respectively.

On to `Cc1c(C(=O)N2CCC(C(CCF)C(F)(F)F)CC2)cnn1-c1nn2cccc2c(=O)[nH]1` (stereo not drawn) [Q-1141], for which the values for the half-inhibitory concentration (IC50) in experiment [1] and in experiment [2] were 19 nM and 1 nM, respectively.

Consider `Cc1c(C(=O)Nc2c(C(C)(O)C(F)(F)F)cnn2C(C)C)cnn1-c1nn2cccc2c(=O)[nH]1` (stereo not drawn) [Q-1142], for which the results for the IC50 in experiment [1] and in experiment [2] were 75 nM and 1 nM, respectively.

Turning to `C=C(c1cnn(C(C)C)c1NC(=O)c1cnn(-c2nn3cccc3c(=O)[nH]2)c1C)C(F)(F)F` [Q-1143], the IC50 amounted to 310 nM in experiment [1] and 3 nM in experiment [2].

In the case of `Cc1c(C(=O)N2CC(c3ccc(F)nc3)C2)cnn1-c1nn2cccc2c(=O)[nH]1` [Q-1144], the IC50 turned out to be 70 nM in experiment [1] and 1 nM in experiment [2].

On to `Cc1c(C(=O)N2CCN(c3nnc(C(F)(F)F)o3)CC2)cnn1-c1nn2cccc2c(=O)[nH]1` [Q-1145], for which the IC50 in experiment [1] is 190 nM; in experiment [2] it was 3 nM.

As for `Cc1c(C(=O)N2CCc3nc(-c4ccc(Cl)cc4)sc3C2)cnn1-c1nn2cccc2c(=O)[nH]1` [Q-1146], the IC50 in experiment [1] worked out at 380 nM; in experiment [2], 5 nM.

Take `Cc1c(C(=O)N2CCc3nc(-c4ccccc4Cl)sc3C2)cnn1-c1nn2cccc2c(=O)[nH]1` [Q-1147]: the IC50 in experiment [1] was 520 nM; in experiment [2] it was 7 nM.

Turning to `Cc1c(C(=O)N2CCc3nc(-c4ccc(C(F)(F)F)cc4)sc3C2)cnn1-c1nn2cccc2c(=O)[nH]1` [Q-1148], the IC50 in experiment [1] is 540 nM; in experiment [2], 10 nM.

Regarding `Cc1c(C(=O)N2CCN(c3ncc(-c4ccccc4F)o3)CC2)cnn1-c1nn2cccc2c(=O)[nH]1` [Q-1149], the IC50 came out at 210 nM in experiment [1] and 5 nM in experiment [2].

Regarding `Cc1c(C(=O)N2CCN(c3ncc(-c4ccccc4Cl)o3)CC2)cnn1-c1nn2cccc2c(=O)[nH]1` [Q-1151], the IC50 in experiment [1] was found to be 310 nM; in experiment [2] it was 8 nM.

For `Cc1c(C(=O)N2CCN(c3nc(-c4ccccc4Cl)cs3)CC2)cnn1-c1nn2cccc2c(=O)[nH]1` [Q-1152], the IC50 in experiment [1] was found to be 380 nM; in experiment [2], 8 nM.

`Cc1c(C(=O)N2CCN(c3nc(-c4ccccc4C(F)(F)F)cs3)CC2)cnn1-c1nn2cccc2c(=O)[nH]1` [Q-1153]: the IC50 amounted to 630 nM in experiment [1] and 8 nM in experiment [2].

In the case of `Cc1c(C(=O)N2CCN(c3nnc(-c4cccc(Cl)c4)o3)CC2)cnn1-c1nn2cccc2c(=O)[nH]1` [Q-1154], the concentration for half-maximal inhibition (IC50) in experiment [1] is 350 nM; in experiment [2], 5 nM.

`Cc1c(C(=O)N2CCN(c3nc(-c4cccc(Cl)c4)cs3)CC2)cnn1-c1nn2cccc2c(=O)[nH]1` [Q-1155]: the IC50 in experiment [1] stood at 270 nM; in experiment [2], 10 nM.

Take `Cc1c(C(=O)N2CCN(c3nc(-c4cccc(F)c4)cs3)CC2)cnn1-c1nn2cccc2c(=O)[nH]1` [Q-1156]: the values for the IC50 in experiment [1] and in experiment [2] were 110 nM and 6 nM, respectively.

Consider `Cc1c(C(=O)N2CCN(c3ncc(-c4cccc(F)c4)o3)CC2)cnn1-c1nn2cccc2c(=O)[nH]1` [Q-1157], for which the IC50 in experiment [1] amounted to 490 nM; in experiment [2], 4 nM.

As for `Cc1c(C(=O)N2CCc3nc(-c4ccccn4)sc3C2)cnn1-c1nn2cccc2c(=O)[nH]1` [Q-1158], the IC50 came to 130 nM in experiment [1] and 2 nM in experiment [2].

For the molecule `Cc1c(C(=O)N2CCN(c3ncc(-c4cccc(C(F)(F)F)c4)o3)CC2)cnn1-c1nn2cccc2c(=O)[nH]1` [Q-1159], the values for the concentration for half-maximal inhibition (IC50) in experiment [1] and in experiment [2] were 600 nM and 20 nM, respectively.

For `Cc1c(C(=O)N2CCc3nc(-c4ccc(F)cc4)sc3C2)cnn1-c1nn2cccc2c(=O)[nH]1` [Q-1160], the 50% inhibitory concentration (IC50) in experiment [1] came to 110 nM; in experiment [2], 3 nM.

Regarding `Cc1c(C(=O)N2CCN(c3ncc(-c4ccncc4)o3)CC2)cnn1-c1nn2cccc2c(=O)[nH]1` [Q-1161], the results for the IC50 in experiment [1] and in experiment [2] were 310 nM and 3 nM, respectively.

For `Cc1c(C(=O)N2CCN(c3ncc(-c4cccnc4)o3)CC2)cnn1-c1nn2cccc2c(=O)[nH]1` [Q-1162], the IC50 in experiment [1] stood at 95 nM; in experiment [2], 1 nM.

Consider `Cc1c(C(=O)N2CCN(c3nc(-c4ccnc(Cl)c4)cs3)CC2)cnn1-c1nn2cccc2c(=O)[nH]1` [Q-1163], for which the IC50 was determined as 68 nM in experiment [1] and 2 nM in experiment [2].

`Cc1c(C(=O)N2CCN(c3nc(-c4cccnc4)cs3)CC2)cnn1-c1nn2cccc2c(=O)[nH]1` [Q-1164]: the figures for the concentration for half-maximal inhibition (IC50) in experiment [1] and in experiment [2] were 37 nM and 1 nM, respectively.

On to `Cc1c(C(=O)N2CCN(c3nc(-c4ccccc4F)cs3)CC2)cnn1-c1nn2cccc2c(=O)[nH]1` [Q-1165], for which the IC50 in experiment [1] was 190 nM; in experiment [2], 6 nM.

In the case of `Cc1c(C(=O)N2CCc3nc(-c4cccc(Cl)c4)sc3C2)cnn1-c1nn2cccc2c(=O)[nH]1` [Q-1166], the IC50 in experiment [1] was 20 nM; in experiment [2], 5 nM.

On to `Cc1c(C(=O)N2CCc3nc(-c4cccc(C(F)(F)F)c4)sc3C2)cnn1-c1nn2cccc2c(=O)[nH]1` [Q-1167], for which the IC50 in experiment [1] was found to be 81 nM; in experiment [2], 10 nM.

Take `Cc1c(C(=O)N2CC3CC(C2)N3C2CCC2)cnn1-c1nn2cccc2c(=O)[nH]1` [Q-1168]: the IC50 in experiment [1] was 58 nM; in experiment [2] it was 3 nM.

Consider `Cc1c(C(=O)N2CC3CC(C2)N3C(=O)OC(C)(C)C)cnn1-c1nn2cccc2c(=O)[nH]1` [Q-1170], for which the IC50 is 160 nM in experiment [1] and 1 nM in experiment [2].

Turning to `Cc1c(C(=O)N2CCN(c3ncc(-c4ccccc4C(F)(F)F)o3)CC2)cnn1-c1nn2cccc2c(=O)[nH]1` [Q-1171], the IC50 turned out to be 140 nM in experiment [1] and 10 nM in experiment [2].

Take `Cc1c(C(=O)N2CCN(c3nc(-c4ccccc4C#N)cs3)CC2)cnn1-c1nn2cccc2c(=O)[nH]1` [Q-1172]: the results for the IC50 in experiment [1] and in experiment [2] were 180 nM and 3 nM, respectively.

For the molecule `Cc1c(C(=O)N2CCN(c3nc(-c4cccc(C(F)(F)F)c4)cs3)CC2)cnn1-c1nn2cccc2c(=O)[nH]1` [Q-1173], the IC50 in experiment [1] was found to be 290 nM; in experiment [2], 20 nM.

Regarding `Cc1c(C(=O)N2CC3CCCC(C2)C3=CC(F)(F)F)cnn1-c1nn2cccc2c(=O)[nH]1` [Q-1174], the figures for the 50% inhibitory concentration (IC50) in experiment [1] and in experiment [2] were 22 nM and 1 nM, respectively.

Take `Cc1c(C(=O)N2CCN(c3ncc(-c4ccc(C(F)(F)F)cc4)o3)CC2)cnn1-c1nn2cccc2c(=O)[nH]1` [Q-1175]: the IC50 in experiment [1] came out at 450 nM; in experiment [2], 20 nM.

Regarding `Cc1c(C(=O)N2CCN(c3ncc(-c4cccc(Cl)c4)o3)CC2)cnn1-c1nn2cccc2c(=O)[nH]1` [Q-1176], the 50% inhibitory concentration (IC50) in experiment [1] is 280 nM; in experiment [2], 9 nM.

Turning to `Cc1c(C(=O)NC2CC(F)(F)C2)cnn1-c1nn2cccc2c(=O)[nH]1` [Q-1177], the IC50 in experiment [1] was 1300 nM; in experiment [2], 9 nM.

Take `Cc1c(C(=O)N2CCN(c3nnc(-c4ccc(C(F)(F)F)cn4)o3)CC2)cnn1-c1nn2cccc2c(=O)[nH]1` [Q-1178]: the IC50 in experiment [1] came to 2600 nM; in experiment [2], 9 nM.

(Values after patent publication US9963462B2 (priority 2015, dated 2018).)
